biological target: T1, Human SGLT2 (hSGLT2) (Homo sapiens, UniProt P31639); assay: Sodium-dependent glucose transport (14C-AMG uptake) assay in CHO cells stably expressing hSGLT2; format: cell-based; settings: CHO cells expressing hSGLT2, 14C-AMG uptake, 37° C. for 2 h; single determinations; read-out: hSGLT2 Inhibitory Activity IC50
T1 construct: expressed in transfected cells
T1 sequence (P31639 1-672): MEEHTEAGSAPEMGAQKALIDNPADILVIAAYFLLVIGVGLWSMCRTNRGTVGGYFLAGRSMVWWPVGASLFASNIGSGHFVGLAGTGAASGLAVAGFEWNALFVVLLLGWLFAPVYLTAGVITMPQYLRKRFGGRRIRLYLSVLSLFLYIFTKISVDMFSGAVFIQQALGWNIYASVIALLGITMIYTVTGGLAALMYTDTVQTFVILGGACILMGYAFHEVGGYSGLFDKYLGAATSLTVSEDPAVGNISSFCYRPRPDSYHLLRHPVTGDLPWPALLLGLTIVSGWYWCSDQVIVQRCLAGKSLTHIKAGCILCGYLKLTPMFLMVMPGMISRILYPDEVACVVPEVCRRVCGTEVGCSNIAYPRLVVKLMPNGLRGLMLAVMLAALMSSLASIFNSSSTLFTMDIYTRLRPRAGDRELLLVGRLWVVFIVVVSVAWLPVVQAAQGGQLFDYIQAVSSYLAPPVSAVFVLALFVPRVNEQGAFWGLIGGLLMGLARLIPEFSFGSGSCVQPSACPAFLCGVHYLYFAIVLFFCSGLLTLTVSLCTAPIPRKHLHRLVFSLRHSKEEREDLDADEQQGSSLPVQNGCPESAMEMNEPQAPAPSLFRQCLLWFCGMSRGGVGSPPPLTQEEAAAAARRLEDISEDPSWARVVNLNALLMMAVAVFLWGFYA
Method in brief: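 CHO cells stably expressing human SGLT2, preincubated 10 min at 37 °C in sodium-free choline buffer, then 2 h at 37 °C in Na+ buffer with 1 mM AMG plus 8 μM 14C-AMG and inhibitor. Washed cells counted by scintillation; IC50 by nonlinear regression.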

SMILES	IC50 [nM]
CCOc1cc(Cl)c(Cc2ncc(-c3ccco3)s2)cc1[C@@H]1O[C@H](CO)[C@@H](O)[C@H](O)[C@H]1O [Example 77, (2S,3R,4R,5S,6R)-2-(4-Chloro-2-ethoxy-5-((5-(furan-2-yl)thiazol-2-yl)methyl)phenyl)-6-(hydroxymethyl)tetrahydro-2H-pyran-3,4,5-triol]	3.98
CCOc1cc(Cl)c(Cc2ncc(-c3ccoc3)s2)cc1[C@@H]1O[C@H](CO)[C@@H](O)[C@H](O)[C@H]1O [Example 78, (2S,3R,4R,5S,6R)-2-(4-Chloro-2-ethoxy-5-((5-(furan-3-yl)thiazol-2-yl)methyl)phenyl)-6-(hydroxymethyl)-tetrahydro-2H-pyran-3,4,5-triol]	4.35
CCOc1cc(Cl)c(Cc2ncc(-c3cccs3)s2)cc1[C@@H]1O[C@H](CO)[C@@H](O)[C@H](O)[C@H]1O [Example 79, (2S,3R,4R,5S,6R)-2-(4-Chloro-2-ethoxy-5-((5-(thiophen-2-yl)thiazol-2-yl)methyl)phenyl)-6-(hydroxymethyl)tetralrydro-2H-pyran-3,4,5-triol]	4.29
CCOc1cc(Cl)c(Cc2ncc(-c3ccccc3)s2)cc1[C@@H]1O[C@H](CO)[C@@H](O)[C@H](O)[C@H]1O [Example 81, (2S,3R,4R,5S,6R)-2-(4-Chloro-2-ethoxy-5-((5-phenylthiazol-2-yl)methyl)phenyl)-6-(hydroxymethyl)tetrahydro-2H-pyran-3,4,5-triol]	2.87
CCOc1cc(Cl)c(Cc2ncc(-c3ccc(F)cc3)s2)cc1[C@@H]1O[C@H](CO)[C@@H](O)[C@H](O)[C@H]1O [Example 82, (2S,3R,4R,5S,6R)-2-(4-Chloro-2-ethoxy-5-((5-(4-fluorophenyl)thiazol-2-yl)methyl)phenyl)-6-(hydroxymethyl)tetrahydro-2H-pyran-3,4,5-triol]	7.55
C=CCOc1cc(Cl)c(Cc2ncc(-c3ccco3)s2)cc1[C@@H]1O[C@H](CO)[C@@H](O)[C@H](O)[C@H]1O [Example 83, (2S,3R,4R,5S,6R)-2-(2-(Allyloxy)-4-chloro-5-((5-(furan-2-yl)thiazol-2-yl)methyl)phenyl)-6-(hydroxymethyl)tetrahydro-2H-pyran-3,4,5-triol]	1.24
C=CCOc1cc(Cl)c(Cc2ncc(-c3ccoc3)s2)cc1[C@@H]1O[C@H](CO)[C@@H](O)[C@H](O)[C@H]1O [Example 84, (2S,3R,4R,5S,6R)-2-(2-(Allyloxy)-4-chloro-5-((5-(furan-3-yl)thiazol-2-yl)methyl)phenyl)-6-(hydroxymethyl)tetrahydro-2H-pyran-3,4,5-triol]	1.54
C=CCOc1cc(Cl)c(Cc2ncc(-c3cccs3)s2)cc1[C@@H]1O[C@H](CO)[C@@H](O)[C@H](O)[C@H]1O [Example 85, (2S,3R,4R,5S,6R)-2-(2-(Allyloxy)-4-chloro-5-((5-(thiophen-2-yl)thiazol-2-yl)methyl)phenyl)-6-(hydroxymethyl)tetrahydro-2H-pyran-3,4,5-triol]	1.69
C=CCOc1cc(Cl)c(Cc2ncc(-c3ccsc3)s2)cc1[C@@H]1O[C@H](CO)[C@@H](O)[C@H](O)[C@H]1O [Example 86, (2S,3R,4R,5S,6R)-2-(2-(Allyloxy)-4-chloro-5-((5-(thiophen-3-yl)thiazol-2-yl)methyl)phenyl)-6-(hydroxymethyl)tetrahydro-2H-pyran-3,4,5-triol]	0.934
C=CCOc1cc(Cl)c(Cc2ncc(-c3ccccc3)s2)cc1[C@@H]1O[C@H](CO)[C@@H](O)[C@H](O)[C@H]1O [Example 87, (2S,3R,4R,5S,6R)-2-(2-(Allyloxy)-4-chloro-5-((5-phenylthiazol-2-yl)methyl)phenyl)-6-(hydroxymethyl)tetrahydro-2H-pyran-3,4,5-triol]	3.38
C=CCOc1cc(Cl)c(Cc2ncc(-c3ccc(F)cc3)s2)cc1[C@@H]1O[C@H](CO)[C@@H](O)[C@H](O)[C@H]1O [Example 88, (2S,3R,4R,5S,6R)-2-(2-(Allyloxy)-4-chloro-5-((5-(4-fluorophenyl)thiazol-2-yl)methyl)phenyl)-6-(hydroxymethyl)tetrahydro-2H-pyran-3,4,5-triol]	4.22
OC[C@H]1O[C@@H](c2cc(Cc3ncc(-c4ccco4)s3)cc3ccccc23)[C@H](O)[C@@H](O)[C@@H]1O [Example 93, (2S,3R,4R,5S,6R)-2-(3-((5-(Furan-2-yl)thiazol-2-yl)methyl)naphthalen-1-yl)-6-(hydroxymethyl)tetrahydro-2H-pyran-3,4,5-triol]	14.3
OC[C@H]1O[C@@H](c2cc(Cc3ncc(-c4cccs4)s3)cc3ccccc23)[C@H](O)[C@@H](O)[C@@H]1O [Example 94, (2R,3S,4R,5R,6S)-2-(Hydroxymethyl)-6-(3-((5-(thiophen-2-yl)thiazol-2-yl)methyl)naphthalen-1-yl)tetrahydro-2H-pyran-3,4,5-triol]	5.98
COc1c(Cc2ncc(-c3ccco3)s2)cc([C@@H]2O[C@H](CO)[C@@H](O)[C@H](O)[C@H]2O)c2ccccc12 [Example 95, (2S,3R,4R,5S,6R)-2-(3-((5-(Furan-2-yl)thiazol-2-yl)methyl)-4-methoxynaphthalen-1-yl)-6-(hydroxymethyl)-tetrahydro-2H-pyran-3,4,5-triol]	2.94
COc1c(Cc2ncc(-c3cccs3)s2)cc([C@@H]2O[C@H](CO)[C@@H](O)[C@H](O)[C@H]2O)c2ccccc12 [Example 96, (2R,3S,4R,5R,6S)-2-(Hydroxymethyl)-6-(4-methoxy-3-((5-(thiophen-2-yl)thiazol-2-yl)methyl)naphthalen-1-yl)-tetrahydro-2H-pyran-3,4,5-triol]	4.94
COc1c(Cc2ncc(-c3ccccc3)s2)cc([C@@H]2O[C@H](CO)[C@@H](O)[C@H](O)[C@H]2O)c2ccccc12 [Example 97, (2R,3S,4R,5R,6S)-2-(Hydroxymethyl)-6-(4-methoxy-3-((5-phenylthiazol-2-yl)methyl)naphthalen-1-yl)-tetrahydro-2H-pyran-3,4,5-triol]	6.77
COc1c(Cc2ncc(C)s2)cc([C@@H]2O[C@H](CO)[C@@H](O)[C@H](O)[C@H]2O)c2ccccc12 [Example 98, (2R,3S,4R,5R,6S)-2-(Hydroxymethyl)-6-(4-methoxy-3-((5-methylthiazol-2-yl)methyl)naphthalen-1-yl)-tetrahydro-2H-pyran-3,4,5-triol]	29.9
CCCCCCCc1cnc(Cc2cc([C@@H]3O[C@H](CO)[C@@H](O)[C@H](O)[C@H]3O)c3ccccc3c2OC)s1 [Example 100, (2S,3R,4R,5S,6R)-2-(3-((5-Heptylthiazol-2-yl)methyl)-4-methoxynaphthalen-1-yl)-6-(hydroxymethyl)-tetrahydro-2H-pyran-3,4,5-triol]	7.3
COc1c(Cc2ncc(C3CCCC3)s2)cc([C@@H]2O[C@H](CO)[C@@H](O)[C@H](O)[C@H]2O)c2ccccc12 [Example 101, (2S,3R,4R,5S,6R)-2-(3-((5-Cyclopentylthiazol-2-yl)methyl)-4-methoxynaphthalen-1-yl)-6-(hydroxymethyl)-tetrahydro-2H-pyran-3,4,5-triol]	26.8
COc1c(Cc2ncc(C3CCCCC3)s2)cc([C@@H]2O[C@H](CO)[C@@H](O)[C@H](O)[C@H]2O)c2ccccc12 [Example 102, (2S,3R,4R,5S,6R)-2-(3-((5-Cyclohexylthiazol-2-yl)methyl)-4-methoxynaphthalen-1-yl)-6-(hydroxymethyl)-tetrahydro-2H-pyran-3,4,5-triol]	50.3
CCOc1cnc(Cc2cc([C@@H]3O[C@H](CO)[C@@H](O)[C@H](O)[C@H]3O)c3ccccc3c2OC)s1 [Example 103, (2S,3R,4R,5S,6R)-2-(3-((5-Ethoxythiazol-2-yl)methyl)-4-methoxynaphthalen-1-yl)-6-(hydroxymethyl)-tetrahydro-2H-pyran-3,4,5-triol]	51.8
OC[C@H]1O[C@@H](c2cc(Cc3ncc(-c4ccco4)s3)c3ccccc3c2)[C@H](O)[C@@H](O)[C@@H]1O [Example 104, (2S,3R,4R,5S,6R)-2-(4-((5-(Furan-2-yl)thiazol-2-yl)methyl)naphthalen-2-yl)-6-(hydroxymethyl)-tetrahydro-2H-pyran-3,4,5-triol]	100
CCc1cnc(Cc2cc([C@@H]3O[C@H](CO)[C@@H](O)[C@H](O)[C@H]3O)cc3ccccc23)s1 [Example 105, (2S,3R,4R,5S,6R)-2-(4-((5-Ethylthiazol-2-yl)methyl)naphthalen-2-yl)-6-(hydroxymethyl)-tetrahydro-2H-pyran-3,4,5-triol]	243
CCOC(=O)c1cnc(Cc2cc([C@@H]3O[C@H](CO)[C@@H](O)[C@H](O)[C@H]3O)ccc2Cl)s1 [Example 106, Ethyl 2-(2-chloro-5-((2S,3R,4R,5S,6R)-3,4,5-trihydroxy-6-(hydroxymethyl)-tetrahydro-2H-pyran-2-yl)benzyl)thiazole-5-carboxylate]	50.3

— patent publication US8586550B2, “Thiazole derivatives as SGLT2 inhibitors and pharmaceutical composition comprising same” (Green Cross Corporation, priority 2010, dated 2013)
